# Columns and labels:
# tumor = system: tumor; set-up: method as in PMID 25621196; conditions: cited from earlier work
# [1] = NanoSPECT/CT imaging with image quantification; format: in vivo; conditions: female, NOD/SCID, mouse, tumor, iv, 2.5 ug, total radioactivity; 0.5 h after tail-vein injection (about 18.5 MBq, 2.5 μg); U-87 MG xenografts in mice; nanoSPECT/CT ROI
# Method: Figure 3 presented nanoSPECT/CT images of U-87 MG xenografts in mice administered with different radiolabeled peptides. […] Comparing with ^111In-DOTA-EB-cRGDfK, the highest tumor uptake of ^111In-DOTA-cRGDfK was 2.0 ± 0.5% ID/g at 0.5 h. […] The ratios of tumor to muscle and tumor to liver were 1.8 ± 0.7 and 0.5 ± 0.1 at 0.5 h, respectively. The highest tumor uptake of ^111In-DOTA-EB was 10.3 ± 4.4% ID/g at 24 h, and it slightly dropped to 9.97 ± 4.37% ID/g at 72 h.
# The human glioblastoma cell line, U-87 MG (stock number: BCRC 60360), was obtained from Bioresource Collection and Research Center. Cells were grown in Minimum Essential Medium (MEM; Gibco, Grand Island, NY, USA) supplemented with 10% (v/v) fetal bovine serum (FBS; Gibco, Gaithersburg, MD, USA) and 1% antibiotic antimycotic solution (Sigma-Aldrich, St. Louis, MO, USA) at 37 °C under 5% CO2 incubation. Female non-obese diabetic, severe combined immunodeficiency (NOD/SCID) mice were obtained from BioLASCO Taiwan Co., Ltd. The 6-week-old mice were housed in a 12 h light cycle at 22 °C, with food and water provided ad libitum. […]
# The procedure for nanoSPECT/CT imaging has been previously described. […] The image quantification of the region of interest (ROI) was acquired by PMOD v. […]
# [2] = mouse, in vivo, iv
# Method: Blood samples (10 μL) were collected by heart puncture under 2% isoflurane anesthesia at 0.083, 0.5, 2, 4, 24, 48, 72, 96, and 168 h. The radioactivity of blood samples was measured by PerkinElmer 2480 gamma counter and expressed as the percentage injected dose per gram (% ID/g). Data was used to determine the pharmacokinetic parameters by noncompartmental analysis (NCA) and the analysis software was WinNonlin 7.0 (Pharsight Corporation, Mountain View, CA, USA). Parameters, including terminal half-life (T1/2λz), maximum concentration (Cmax), total body clearance (Cl), area under curve (AUC), and mean residence time (MRT) were determined. Pharmacokinetic parameters associated with the terminal phase were calculated using the best-fit method to estimate the terminal half-life.
# U-87 MG cells = format: binding, human; conditions: 4 h
# Method: As the concentration of unlabeled DOTA-EB-cRGDfK or DOTA-cRGDfK increased, the binding ratio of ^111In-DOTA-EB-cRGDfK decreased, indicating the presence of specific binding affinity (Figure 2C).
# U-87 MG cells were seeded into 24-well plates at a density of 1 × 10^5 cells per well and incubated overnight. Different concentrations ranging from 0.01 nM to 5000 nM of DOTA-EB-cRGDfK or DOTA-cRGDfK were added to the wells. U-87 MG cells were then incubated with 10 nM ^111In-DOTA-EB-cRGDfK for 4 h at 37 °C. Cells were washed once with 0.5 mL PBS and were removed from each well by 0.25% trypsin-EDTA (Gibco, Gaithersburg, MD, USA). The cell suspensions were collected and measured by using a PerkinElmer 2480 Automatic Gamma Counter (PerkinElmer, Waltham, MA, USA). Binding results were expressed as a percent of total counts, and IC50 values were calculated using SigmaPlot 12.5 (Systat Software, Inc., San Jose, CA, USA).
smiles,measurement,setting,value
N[C@@H](Cc1ccc(B(O)O)cc1[18F])C(=O)O [^18F-BPA],Tumor uptake,tumor,1.44 ± 0.44 % ID/g
"N=C(N)NCCC[C@@H]1NC(=O)[C@H](CCCCNC(=O)CN2CCN(CC(=O)O)CCN(CC(=O)O)CCN(CC(=O)O)CC2)NC(=O)[C@@H](Cc2ccccc2)NC(=O)[C@H](CC(=O)O)NC(=O)CNC1=O [^111In-DOTA-cRGDfK, metal not drawn]",tissue uptake at 0.5 h,[1],2 ± 0.5 %ID/g
same,Cl (total body clearance),[2],12.9 mL/h
same,Maximum concentration (Cmax) in blood,[2],3.74 % ID/g
same,T1/2λz (terminal half-life),[2],17.2 h
N=C(N)NCCC[C@@H]1NC(=O)[C@H](CCCCNC(=O)CN2CCN(CC(=O)O)CCN(CC(=O)O)CCN(CC(=O)O)CC2)NC(=O)[C@@H](Cc2ccccc2)NC(=O)[C@H](CC(=O)O)NC(=O)CNC1=O [DOTA-cRGDfK],IC50,U-87 MG cells,0.0352 µM

# Source: publication PMC8196871, “Molecular Imaging and Preclinical Studies of Radiolabeled Long-Term RGD Peptides in U-87 MG Tumor-Bearing Mice” (International Journal of Molecular Sciences, 2021)
